Consider ten molecules from ChEMBL document CHEMBL1201862, “PubChem BioAssay data set” (2004).

Among the test systems are RPMI-8226; OVCAR-5; OVCAR-8; 786-0; HCC 2998; SK-MEL-2; KM12; CCRF-CEM; HCT-15; SN12C; EKVX; SK-MEL-5; MDA-MB-435; DU-145; OVCAR-4; NCI-H460; K562; TK-10; SF-295; NCI-H23.
Holding throughout (experiment): NCI-60 cell line screen, 48 h

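Where inhibition never reached the appropriate level, the endpoint shown equals the highest concentration tested. Otherwise, values were interpolated linearly from a five-concentration, 48-hour dose response in 96-well plates. At the GI50, growth is halved.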 Calls of active or inactive are those of the source. Rule as the data show it: active = GI50 up to about 1.1 µM and inactive = higher. Some results are limits rather than exact numbers.

As to `COc1ccc(-c2cs/c(=N\c3ccccc3)n2CC(O)c2ccc([N+](=O)[O-])cc2)cc1` (centres undefined), the GI50 was 6.37 µM (inactive) in the test on RPMI-8226; > 100 µM (inactive) in the test on OVCAR-5; > 100 µM (inactive) with OVCAR-8; > 100 µM (inactive) in the test with 786-0; > 100 µM (inactive) in the test with HCC 2998; > 100 µM (inactive) in the test on SK-MEL-2. For the same molecule, the GI50 with KM12 is > 100 µM (inactive); with CCRF-CEM it was > 71.1 µM (inactive); in the test on HCT-15 it was greater than 100 µM; with SN12C, > 100 µM (inactive); in the test with EKVX, > 100 µM (inactive); in the test on SK-MEL-5, 4.04 µM (inactive). In addition, the GI50 with MDA-MB-435 was > 100 µM (inactive); in the test with DU-145, > 100 µM (inactive); in the test with OVCAR-4 it was > 100 µM (inactive); with NCI-H460, > 100 µM (inactive); with K562, 3.84 µM (inactive); with TK-10, > 100 µM (inactive). The GI50 with SF-295 and with NCI-H23 was > 100 µM (inactive) each time.
As to `O=C1c2cccnc2C(=O)C2C3C=CC(C3)C12` (centres undefined), the GI50 was 2.49 µM (inactive) in the test on RPMI-8226; 18.3 µM (inactive) with OVCAR-5; 5.48 µM (inactive) with OVCAR-8; 11.1 µM (inactive) with 786-0; 15.8 µM (inactive) in the test with HCC 2998; 5.08 µM (inactive) in the test with SK-MEL-2. Moreover, the GI50 in the test with KM12 was 14.5 µM (inactive); in the test on CCRF-CEM, 1.18 µM (inactive); in the test with HCT-15, 12 µM; in the test with SN12C it was 12.8 µM (inactive); in the test on EKVX, 13.4 µM (inactive); in the test with SK-MEL-5 it was 10.8 µM (inactive). Moreover, the GI50 with MDA-MB-435 is 2.25 µM (inactive); with DU-145, 6.92 µM (inactive); in the test on OVCAR-4, 5.01 µM (inactive); in the test on NCI-H460, 3.49 µM (inactive); with K562, 2.94 µM (inactive); in the test with TK-10 it was 18 µM (inactive). Further, the GI50 in the test on SF-295 is 12.6 µM (inactive); in the test on NCI-H23, 12.1 µM (inactive).
`Cc1cc(C)n(-c2nc(-n3nc(C)cc3C)nc(-n3nc(C)cc3C)n2)n1`: the GI50 in the test on RPMI-8226 was 93.1 µM (inactive); in the test with OVCAR-5, > 100 µM (inactive); in the test with OVCAR-8 it was 68.9 µM (inactive); with 786-0 it was > 100 µM (inactive); with HCC 2998 it was > 100 µM (inactive); in the test with SK-MEL-2 it was > 100 µM (inactive). For the same molecule, the GI50 in the test on KM12 was > 100 µM (inactive); in the test on CCRF-CEM, 62.7 µM (inactive); in the test with HCT-15, 83.8 µM; in the test with SN12C it was > 100 µM (inactive); in the test on EKVX, 40.2 µM (inactive); in the test on SK-MEL-5 it was > 100 µM (inactive). In addition, the GI50 was > 100 µM (inactive) in the test with MDA-MB-435; > 100 µM (inactive) in the test on DU-145; > 100 µM (inactive) in the test with OVCAR-4; 33.2 µM (inactive) with NCI-H460; 59.2 µM (inactive) in the test on K562; 30.1 µM (inactive) in the test with TK-10. In addition, the values for the GI50 in the test with SF-295 and in the test on NCI-H23 were > 100 µM (inactive) and 88.7 µM (inactive), respectively.
In the case of `C[C@@H]1O[C@@H](O[C@H]2CC[C@]3(C=O)[C@H]4CC[C@]5(C)[C@@H](c6ccc(=O)oc6)CC[C@]5(O)[C@@H]4CC[C@]3(O)C2)[C@H](O)[C@H](O)[C@H]1O[C@@H]1O[C@H](CO)[C@@H](O)[C@H](O)[C@H]1O` [HELLEBRIN], the GI50 was 0.0375 µM (active) with RPMI-8226; 0.00989 µM (active) with OVCAR-5; 0.0126 µM (active) in the test with OVCAR-8; 0.00451 µM (active) in the test with 786-0; 0.0365 µM (active) in the test with HCC 2998; 0.0199 µM (active) with SK-MEL-2. Besides, the GI50 was 0.0521 µM (active) in the test on KM12; 0.00445 µM (active) in the test on CCRF-CEM; 0.0375 µM with HCT-15; 0.00506 µM (active) in the test with SN12C; 0.0075 µM (active) with EKVX; 0.00841 µM (active) in the test with SK-MEL-5. The GI50 in the test with MDA-MB-435 was 0.0107 µM (active); in the test on DU-145 it was 0.00265 µM (active); in the test with OVCAR-4 it was 0.00743 µM (active); with NCI-H460, 0.00771 µM (active); with K562, 0.0218 µM (active); in the test with TK-10 it was 0.00347 µM (active). Further, the GI50 with SF-295 was 0.0112 µM (active); in the test on NCI-H23, 0.00314 µM (active).
As to `CN(C)S(=O)(=O)c1ccc2c(c1)/C(=C1/Nc3ccccc3C1=O)C(=O)N2`, the GI50 in the test on RPMI-8226 is > 100 µM (inactive); in the test with OVCAR-5, > 100 µM (inactive); in the test with OVCAR-8 it was 32.5 µM (inactive); in the test on 786-0 it was 16 µM (inactive); with HCC 2998 it was > 100 µM (inactive); in the test with SK-MEL-2, 18.4 µM (inactive). Besides, the GI50 in the test on KM12 was > 100 µM (inactive); in the test with CCRF-CEM it was > 100 µM (inactive); in the test with HCT-15, 87.9 µM; in the test with SN12C, 38 µM (inactive); in the test with EKVX, 24 µM (inactive); in the test with SK-MEL-5, > 100 µM (inactive). The GI50 in the test on MDA-MB-435 is > 100 µM (inactive); in the test on DU-145, 24.9 µM (inactive); in the test with OVCAR-4, > 100 µM (inactive); with NCI-H460, 24.7 µM (inactive); in the test on K562, 34.8 µM (inactive); in the test with TK-10, 19.5 µM (inactive). Besides, the values for the GI50 in the test on SF-295 and in the test on NCI-H23 were 12.9 µM (inactive) and 16.1 µM (inactive), respectively.
As to `CCCCn1c(N)c(-c2nc3ccccc3o2)sc1=S`, the GI50 in the test on RPMI-8226 was 21.7 µM (inactive); in the test with OVCAR-5 it was 24.8 µM (inactive); with OVCAR-8, 17.5 µM (inactive); with 786-0, 17.3 µM (inactive); in the test on HCC 2998, 36.1 µM (inactive); in the test on SK-MEL-2, 13.4 µM (inactive). In addition, the GI50 with KM12 is 12.5 µM (inactive); in the test on CCRF-CEM it was 32.8 µM (inactive); in the test on HCT-15, 15.4 µM; with SN12C, 22.1 µM (inactive); in the test on EKVX, 21.8 µM (inactive); with SK-MEL-5 it was 14 µM (inactive). Further, the GI50 in the test on MDA-MB-435 was 12.6 µM (inactive); with DU-145 it was 12.4 µM (inactive); with OVCAR-4, 5.81 µM (inactive); in the test on NCI-H460, 15.8 µM (inactive); in the test on K562, 22.3 µM (inactive); with TK-10 it was 18.3 µM (inactive). Moreover, the figures for the GI50 with SF-295 and in the test with NCI-H23 were 12.6 µM (inactive) and 15.6 µM (inactive), respectively.
On to `CC(C)=Cc1cc(CCC/C(C)=C/Cc2c(O)cc(C)c(C(=O)O)c2O)co1`, for which the GI50 was 26.1 µM (inactive) with RPMI-8226; > 100 µM (inactive) in the test with OVCAR-5; 84.9 µM (inactive) in the test on OVCAR-8; > 100 µM (inactive) in the test on 786-0; > 100 µM (inactive) in the test with HCC 2998; > 100 µM (inactive) in the test with SK-MEL-2. Besides, the GI50 in the test on KM12 is > 100 µM (inactive); in the test on CCRF-CEM it was 32.1 µM (inactive); in the test with HCT-15, greater than 100 µM; in the test on SN12C, > 100 µM (inactive); with EKVX, > 100 µM (inactive); in the test on SK-MEL-5, > 100 µM (inactive). The GI50 is > 100 µM (inactive) in the test with MDA-MB-435; > 100 µM (inactive) with DU-145; > 100 µM (inactive) in the test on OVCAR-4; > 100 µM (inactive) with NCI-H460; 0.203 µM (active) in the test on K562; > 100 µM (inactive) in the test with TK-10. Further, the GI50 in the test on SF-295 and in the test with NCI-H23 was > 100 µM (inactive) throughout.
Consider `Cc1cc(NC(=O)NC(=O)c2ccccc2NC(=O)CN(C)C)ccc1Oc1ncc(Br)cn1`, for which the GI50 in the test with RPMI-8226 was 10.4 µM (inactive); in the test on OVCAR-5 it was 15.1 µM (inactive); in the test with OVCAR-8, 6.84 µM (inactive); in the test on 786-0, 3.52 µM (inactive); with HCC 2998 it was 1.22 µM (inactive); in the test on SK-MEL-2 it was 10.4 µM (inactive). Also, the GI50 in the test on KM12 was 1.36 µM (inactive); in the test on CCRF-CEM, 2.26 µM (inactive); in the test with HCT-15, 3.18 µM; with SN12C, 17.3 µM (inactive); with EKVX, 12.9 µM (inactive); in the test with SK-MEL-5, 1.45 µM (inactive). Also, the GI50 in the test with MDA-MB-435 was 0.289 µM (active); with DU-145, 2.41 µM (inactive); with OVCAR-4 it was 71.3 µM (inactive); in the test with NCI-H460, 0.78 µM (active); with K562, 2 µM (inactive); with TK-10, 21.6 µM (inactive). The GI50 in the test with SF-295 is 0.748 µM (active); with NCI-H23 it was 4.67 µM (inactive).
On to `COC(=O)C1CCC(=S)N1C(=O)c1ccccc1` (centres undefined), for which the GI50 is > 100 µM (inactive) in the test with RPMI-8226; > 100 µM (inactive) in the test with OVCAR-5; > 100 µM (inactive) in the test with OVCAR-8; > 100 µM (inactive) with 786-0; 77.6 µM (inactive) in the test with HCC 2998; > 100 µM (inactive) in the test on SK-MEL-2. The GI50 in the test with KM12 is > 100 µM (inactive); in the test with CCRF-CEM, > 100 µM (inactive); in the test with HCT-15 it was greater than 100 µM; with EKVX, 87.3 µM (inactive); with SK-MEL-5, > 100 µM (inactive); with MDA-MB-435 it was > 100 µM (inactive). The GI50 in the test with DU-145 is > 100 µM (inactive); with OVCAR-4, > 100 µM (inactive); in the test with NCI-H460 it was 40.6 µM (inactive); with K562 it was 4.94 µM (inactive); with TK-10 it was > 100 µM (inactive); in the test on SF-295 it was > 100 µM (inactive). In addition, in the test with NCI-H23, the GI50 was > 100 µM (inactive).
On to `CO/N=C1\CC(C)N2C(=O)C(C(C)C)NC(=O)C(NC(=O)c3c4nc5c(C(=O)NC6C(=O)NC(C(C)C)C(=O)N7C(C)CC(O)C7C(=O)N(C)CC(=O)N(C)C(C(C)C)C(=O)OC6C)ccc(C)c5oc-4c(C)c(=O)c3N)C(CO)OC(=O)C(C)N(C)C(=O)CN(C)C(=O)C12` (centres undefined), for which the GI50 is 0.0984 µM (active) in the test on RPMI-8226; 6.92 µM (inactive) with OVCAR-5; 0.617 µM (active) in the test on OVCAR-8; 1.01 µM (active) in the test with 786-0; 0.869 µM (active) with HCC 2998; 0.308 µM (active) in the test with SK-MEL-2. Further, the GI50 was 0.877 µM (active) in the test on KM12; 0.0703 µM (active) in the test with CCRF-CEM; 7.01 µM with HCT-15; 0.416 µM (active) with SN12C; 4 µM (inactive) with EKVX; 0.174 µM (active) with SK-MEL-5. In addition, the GI50 with MDA-MB-435 is 0.824 µM (active); in the test on DU-145 it was 1.97 µM (inactive); in the test with OVCAR-4, 5.82 µM (inactive); in the test on NCI-H460, 0.098 µM (active); with K562 it was 0.159 µM (active); with TK-10, 5.48 µM (inactive). Also, the GI50 in the test with SF-295 was 1.13 µM (inactive); in the test with NCI-H23 it was 1.43 µM (inactive).
